Common to all, as to type: biochemical
The target of one assay is T1, NUAK2 (h) (Homo sapiens, UniProt Q9H093).
T1 construct: This assay was done radiometrically using full-length, recombinant enzyme; purchased Eurofins
T1 sequence (Q9H093 1-628): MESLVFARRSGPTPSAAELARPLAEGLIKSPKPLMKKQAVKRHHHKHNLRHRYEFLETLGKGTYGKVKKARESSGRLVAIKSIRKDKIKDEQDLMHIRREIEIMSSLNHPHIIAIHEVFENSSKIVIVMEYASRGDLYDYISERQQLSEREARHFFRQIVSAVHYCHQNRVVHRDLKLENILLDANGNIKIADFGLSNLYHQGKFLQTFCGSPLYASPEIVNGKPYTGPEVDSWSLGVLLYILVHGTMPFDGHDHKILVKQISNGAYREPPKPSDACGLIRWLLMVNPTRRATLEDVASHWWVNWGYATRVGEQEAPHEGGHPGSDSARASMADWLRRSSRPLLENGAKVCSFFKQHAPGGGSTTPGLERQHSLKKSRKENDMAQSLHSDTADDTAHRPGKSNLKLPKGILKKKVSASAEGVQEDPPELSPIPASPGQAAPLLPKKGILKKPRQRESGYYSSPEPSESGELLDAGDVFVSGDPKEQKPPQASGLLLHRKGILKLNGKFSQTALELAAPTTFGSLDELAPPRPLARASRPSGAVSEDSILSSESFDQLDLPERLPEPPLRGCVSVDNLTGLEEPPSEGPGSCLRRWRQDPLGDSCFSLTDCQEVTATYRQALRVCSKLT
Put plainly: NUAK2 enzymatic assay (radiometric, Eurofins). As to conditions: full-length recombinant enzyme. The protocol: (§1) To identify small molecule NUAK inhibitors, a biochemical NUAK2 enzymatic assay were outsourced to Eurofins. This assay was done radiometrically using full-length, recombinant enzyme. NUAK2 (h) was incubated with 8 mM MOPS pH 7.0, 0.2 mM EDTA, 300 μM […], 10 mM magnesium acetate and […] (specific activity and concentration as required). The reaction was initiated by the addition of the Mg/ATP mix. After incubation for 40 minutes at room temperature, the reaction was stopped by the addition of phosphoric acid to a concentration of 0.5%. 10 μL of the reaction was then spotted onto a P30 filtermat and washed four times for 4 minutes in 0.425% phosphoric acid and once in methanol prior to drying and scintillation counting. Compounds were routinely counter-screened against Aurora A and NUAK1. The results are shown in Table 1 where IC50's are reported in the following ranges: A: 0.1-10 nM; B: 11-100 nM; C: 101-1000 nM; D: >1000 nM for the compounds of Formula (I)

Another assay concerns the target T2, NUAK1 (Homo sapiens, UniProt O60285).
T2 sequence (O60285 1-661): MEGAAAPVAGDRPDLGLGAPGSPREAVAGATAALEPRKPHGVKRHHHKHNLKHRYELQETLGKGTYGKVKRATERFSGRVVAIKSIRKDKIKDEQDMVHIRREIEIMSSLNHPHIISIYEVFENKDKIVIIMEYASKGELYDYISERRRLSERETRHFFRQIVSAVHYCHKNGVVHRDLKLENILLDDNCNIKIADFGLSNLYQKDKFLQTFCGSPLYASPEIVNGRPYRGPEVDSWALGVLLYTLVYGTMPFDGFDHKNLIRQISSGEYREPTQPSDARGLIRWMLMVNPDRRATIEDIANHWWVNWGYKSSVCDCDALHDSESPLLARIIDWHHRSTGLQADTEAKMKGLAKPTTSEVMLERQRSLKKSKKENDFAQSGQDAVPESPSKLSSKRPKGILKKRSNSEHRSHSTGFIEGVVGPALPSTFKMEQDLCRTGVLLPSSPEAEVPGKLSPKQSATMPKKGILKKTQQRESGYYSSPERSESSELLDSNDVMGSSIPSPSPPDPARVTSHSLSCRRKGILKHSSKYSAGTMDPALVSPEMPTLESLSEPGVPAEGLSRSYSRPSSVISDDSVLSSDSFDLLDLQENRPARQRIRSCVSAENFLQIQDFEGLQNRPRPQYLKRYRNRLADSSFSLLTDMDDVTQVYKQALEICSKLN
Kind of assay: Counter-screen against NUAK1. The protocol:
as §1

The next assay addresses T3, Aurora A (Homo sapiens, UniProt O14965).
T3 sequence (O14965 1-403): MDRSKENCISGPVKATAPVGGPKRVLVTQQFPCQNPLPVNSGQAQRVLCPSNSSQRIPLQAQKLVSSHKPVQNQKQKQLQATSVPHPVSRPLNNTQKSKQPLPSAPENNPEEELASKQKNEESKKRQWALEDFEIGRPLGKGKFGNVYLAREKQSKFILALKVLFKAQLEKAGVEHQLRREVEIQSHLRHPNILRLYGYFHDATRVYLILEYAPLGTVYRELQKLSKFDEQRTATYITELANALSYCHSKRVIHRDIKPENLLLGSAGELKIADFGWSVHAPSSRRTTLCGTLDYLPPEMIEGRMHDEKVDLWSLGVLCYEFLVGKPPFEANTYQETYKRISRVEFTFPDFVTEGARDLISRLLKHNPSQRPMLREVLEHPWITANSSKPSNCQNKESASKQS
Kind of assay: Counter-screen against Aurora A. Conditions: read-out: AUR-A (IC50). Here is the method:
as §1

Some results are limits rather than exact numbers.

Regarding `COc1cc2c(cc1Nc1ncc(Cl)c(Nc3cccc4c3C(=O)NC4)n1)CCNCC2` [Compound I-26, 7-((5-chloro-2-((8-methoxy-2,3,4,5-tetrahydro-1H-benzo[d]azepin-7-yl)amino)pyrimidin-4-yl)amino)isoindolin-1-one], the IC50 at NUAK2 (h) is 0.011 to 0.1 µM; on NUAK1, 0.011 to 0.1 µM; at Aurora A it was > 1 µM.
For `CN1C[C@@H]2CN(c3ccc(Nc4ncc(Cl)c(Nc5cccc6c5C(=O)NC6)n4)c(OC(F)F)c3)C[C@@H]2C1` [Compound I-28, 7-((5-chloro-2-((2-(difluoromethoxy)-4-((3aR,6aS)-5-methylhexahydropyrrolo[3,4-c]pyrrol-2(1H)-yl)phenyl)amino)pyrimidin-4-yl)amino)isoindolin-1-one], the results for the IC50 at NUAK2 (h), against NUAK1 and on Aurora A were 0.0001 to 0.01 µM, 0.011 to 0.1 µM and > 1 µM, respectively.
The like results for `COc1c(Nc2ncc(Cl)c(Nc3cccc4c3C(=O)NC4)n2)ccc(N2C[C@H]3CN(C)C[C@H]3C2)c1F` [Compound I-29, 7-((5-chloro-2-((3-fluoro-2-methoxy-4-((3aR,6aS)-5-methylhexahydropyrrolo[3,4-c]pyrrol-2(1H)-yl)phenyl)amino)pyrimidin-4-yl)amino)isoindolin-1-one] were, in that order, 0.011 to 0.1 µM, 0.011 to 0.1 µM and 0.101 to 1 µM.
On the same counts, the results for `COc1cc2c(cc1Nc1ncc(C(F)(F)F)c(Nc3cccc4c3C(=O)NC4)n1)CNCC2` [Compound I-30, 7-((2-((6-methoxy-1,2,3,4-tetrahydroisoquinolin-7-yl)amino)-5-(trifluoromethyl)pyrimidin-4-yl)amino)isoindolin-1-one] are 0.0001 to 0.01 µM, 0.0001 to 0.01 µM and 0.101 to 1 µM.
The like results for `CC(C)(C)N1CCN(C2CCN(c3ccc(Nc4ncc(C(F)(F)F)c(Nc5cccc6c5C(=O)NC6)n4)c(OC(F)F)c3)CC2)CC1` [Compound I-31, 7-((2-((4-(4-(4-(tert-butyl)piperazin-1-yl)piperidin-1-yl)-2-(difluoromethoxy)phenyl)amino)-5-(trifluoromethyl)pyrimidin-4-yl)amino)isoindolin-1-one] were, in that order, 0.0001 to 0.01 µM, 0.011 to 0.1 µM and 0.101 to 1 µM.
Regarding `CC(C)N1CCN(C2CCN(c3ccc(Nc4ncc(C(F)(F)F)c(Nc5cccc6c5C(=O)NC6)n4)c(OC(F)F)c3)CC2)CC1` [Compound I-32, 7-((2-((2-(difluoromethoxy)-4-(4-(4-isopropylpiperazin-1-yl)piperidin-1-yl)phenyl)amino)-5-(trifluoromethyl)pyrimidin-4-yl)amino)isoindolin-1-one], the IC50 at NUAK2 (h) was in the range of 0.011 to 0.1 µM; against NUAK1, 0.011 to 0.1 µM; at Aurora A, 0.101 to 1 µM.
In the case of `COc1c(Nc2ncc(C(F)(F)F)c(Nc3cccc4c3C(=O)NC4)n2)ccc(N2C[C@H]3CN(C)C[C@H]3C2)c1F` [Compound I-35, 7-((2-((3-fluoro-2-methoxy-4-((3aR,6aS)-5-methylhexahydropyrrolo[3,4-c]pyrrol-2(1H)-yl)phenyl)amino)-5-(trifluoromethyl)pyrimidin-4-yl)amino)isoindolin-1-one], the IC50 at NUAK2 (h) lay in the range of 0.011 to 0.1 µM; against NUAK1, 0.011 to 0.1 µM; on Aurora A it was 0.101 to 1 µM.
`CN1CCN(c2ccc(Nc3ncc(C(F)(F)F)c(Nc4cccc5c4C(=O)NC5)n3)c(Cl)c2F)CC1` [Compound I-36, 7-((2-((2-chloro-3-fluoro-4-(4-methylpiperazin-1-yl)phenyl)amino)-5-(trifluoromethyl)pyrimidin-4-yl)amino)isoindolin-1-one]: the IC50 on NUAK2 (h) is 0.011 to 0.1 µM; against NUAK1, 0.0001 to 0.01 µM; at Aurora A it was 0.011 to 0.1 µM.
In the case of `COc1c(Nc2ncc(C(F)(F)F)c(Nc3cccc4c3C(=O)NC4)n2)ccc(N2CCC(N3CCCC3)CC2)c1F` [Compound I-37, 7-((2-((3-fluoro-2-methoxy-4-(4-(pyrrolidin-1-yl)piperidin-1-yl)phenyl)amino)-5-(trifluoromethyl)pyrimidin-4-yl)amino)isoindolin-1-one], the IC50 on NUAK2 (h) is 0.0001 to 0.01 µM; against NUAK1, 0.011 to 0.1 µM; at Aurora A, 0.011 to 0.1 µM.
On to `COc1c(Nc2ncc(C(F)(F)F)c(Nc3cccc4c3C(=O)NC4)n2)ccc(N2CCCN(C)CC2)c1F` [Compound I-38, 7-((2-((3-fluoro-2-methoxy-4-(4-methyl-1,4-diazepan-1-yl)phenyl)amino)-5-(trifluoromethyl)pyrimidin-4-yl)amino)isoindolin-1-one], for which the values for the IC50 at NUAK2 (h), against NUAK1 and at Aurora A were 0.0001 to 0.01 µM, 0.011 to 0.1 µM and 0.101 to 1 µM, respectively.
Take `COc1c(Nc2ncc(C(F)(F)F)c(Nc3cccc4c3C(=O)NC4)n2)ccc(N2CCC(N3CCNCC3)CC2)c1F` [Compound I-39, 7-((2-((3-fluoro-2-methoxy-4-(4-(piperazin-1-yl)piperidin-1-yl)phenyl)amino)-5-(trifluoromethyl)pyrimidin-4-yl)amino)isoindolin-1-one]: the IC50 at NUAK2 (h), against NUAK1 and on Aurora A was 0.011 to 0.1 µM throughout.
For `O=C1NCc2cccc(Nc3nc(Nc4ccc(N5CCC(N6CCNCC6)CC5)cc4OC(F)F)ncc3C(F)(F)F)c21` [Compound I-40, 7-((2-((2-(difluoromethoxy)-4-(4-(piperazin-1-yl)piperidin-1-yl)phenyl)amino)-5-(trifluoromethyl)pyrimidin-4-yl)amino)isoindolin-1-one], the IC50 on NUAK2 (h) is 0.0001 to 0.01 µM; against NUAK1, 0.011 to 0.1 µM; on Aurora A it was 0.101 to 1 µM.
The like results for `CN1CCN(c2ccc(Nc3ncc(Cl)c(Nc4cccc5c4C(=O)NC5)n3)c(OC(F)(F)F)c2)CC1` [Compound I-41, 7-((5-chloro-2-((4-(4-methylpiperazin-1-yl)-2-(trifluoromethoxy)phenyl)amino)pyrimidin-4-yl)amino)isoindolin-1-one] were, in that order, 0.011 to 0.1 µM, 0.101 to 1 µM and 0.101 to 1 µM.
Regarding `O=C1NCc2cccc(Nc3nc(Nc4ccc(N5CCNCC5)cc4OC(F)F)ncc3F)c21` [Compound I-42, 7-((2-((2-(difluoromethoxy)-4-(piperazin-1-yl)phenyl)amino)-5-fluoropyrimidin-4-yl)amino)isoindolin-1-one], the IC50 on NUAK2 (h) lay in the range of 0.011 to 0.1 µM; on NUAK1 it was 0.101 to 1 µM; on Aurora A it was 0.101 to 1 µM.
Take `COc1cc2c(cc1Nc1ncc(F)c(Nc3cccc4c3C(=O)NC4)n1)CCNC2` [Compound I-43, 7-((5-fluoro-2-((7-methoxy-1,2,3,4-tetrahydroisoquinolin-6-yl)amino)pyrimidin-4-yl)amino)isoindolin-1-one]: the IC50 fell in the range of 0.011 to 0.1 µM on NUAK2 (h), 0.101 to 1 µM on NUAK1 and 0.101 to 1 µM at Aurora A.

The values above are taken from patent US12643886B2 (Ontario Institute for Cancer Research (OICR), priority 2021, dated 2026).
